Tests used:
Assay type in all cases: cell-based
Scedosporium apiospermum = assay: Antifungal activity in vitro, resazurin growth inhibition: Scedosporium apiospermum (IHEM3817)
Description: (§1) The standard susceptibility screen is performed in 96-well plates (U-bottom, Greiner Bio-One). Serial dilutions (2-fold or 4-fold) of 20 mM compound stock solutions are made in 100% DMSO, followed by an intermediate dilution step in water. These serial dilutions (10 μl) are then spotted onto test-plates that can be stored in the dark at 4° C. for a maximum period of 2 weeks. An adequate broad dose-range is included with 64 μM as the highest in-test concentration. The culture medium RPMI-1640 is supplemented with L-glutamine, 2% glucose and buffered with 3-(N-morpholino)-propanesulfonic acid (MOPS) at pH 7.0±0.1.
(§2) The different fungal species/isolates (Table 3a) are cryopreserved and 1/1000 diluted in medium just prior to use. A standard inoculum of 200 μl containing 10^3 colony-forming unit (cfu) is then added to each well. A positive control (100% growth=fungal culture without antifungal) and a negative control (0% growth ═RPMI-MOPS medium) are included on each plate. Optimal incubation time and temperature are dependent on the fungal species and vary from 24 h for yeasts (37° C.) to one week or more for dermatophytes (27° C.). Inhibition of fungal growth is measured after adding 10 μl of 0.005% (w/v) resazurin (Sigma Aldrich) to each well, based on the principle that living cells convert the non-fluorescent blue resazurin into the pink and fluorescent resorufin, allowing fluorimetric reading (λex 550 nm and λem 590 nm) after an additional incubation period (‘resa’ time mentioned in Table 3a).

Sporothrix schenkii = assay: Antifungal activity in vitro, resazurin growth inhibition: Sporothrix schenkii (B62482)
In short: (§3)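 Broth microdilution: RPMI-1640/L-Gln/2% glucose, MOPS pH 7.0±0.1; 10^3 cfu/well; top concentration 64 μM, 2- or 4-fold steps. Dermatophytes at 27° C., one week or more. Resazurin 0.005% (w/v) added, fluorescence 550/590 nm.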

[1] = tested on: Trichophyton mentagrophytes; assay: Antifungal activity in vitro, resazurin growth inhibition: Trichophyton mentagrophytes (B70554)
In short: (§4)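 Compound dilutions, with 64 μM as the highest in-test level, are spotted onto plates, then an inoculum of 10^3 cfu in RPMI-1640 plus 2% glucose (MOPS, pH 7.0±0.1) is added. Plates are incubated at species-dependent time and temperature, up to a week or more at 27° C. for dermatophytes.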

Rhizopus oryzae = assay: Antifungal activity in vitro, resazurin growth inhibition: Rhizopus oryzae (IHEM5223)
Description: as §1, §2

Scedosporium prolificans = assay: Antifungal activity in vitro, resazurin growth inhibition: Scedosporium prolificans (IHEM21157)
Description: as §1, §2

Rhizomucor miehei = assay: Antifungal activity in vitro, resazurin growth inhibition: Rhizomucor miehei (IHEM13391)
Description: as §1, §2

Microsporum canis = assay: Antifungal activity in vitro, resazurin growth inhibition: Microsporum canis (B68128)
In short: as §4

Cryptococcus neoformans = assay: Antifungal activity in vitro, resazurin growth inhibition: Cryptococcus neoformans (B66663)
In short: as §3

Trichophyton rubrum = assay: Antifungal activity in vitro, resazurin growth inhibition: Trichophyton rubrum (B68183)
In short: as §4

Candida parapsilosis = assay: Antifungal activity in vitro, resazurin growth inhibition: Candida parapsilosis (B66126)
In short: as §3

Aspergillus fumigatus = assay: Antifungal activity in vitro, resazurin growth inhibition: Aspergillus fumigatus (B42928)
In short: as §3

SMILES | Inf. H: Scedosporium apiospermum IHEM3817, pIC50 (Scedosporium apiospermum) | Inf. A: Sporothrix schenkii B62482, pIC50 (Sporothrix schenkii) | Inf. G: Trichophyton mentagrophytes B70554, pIC50 [1] | Inf. J: Rhizopus oryzae IHEM5223, pIC50 (Rhizopus oryzae) | Inf. I: Scedosporium prolificans IHEM21157, pIC50 (Scedosporium prolificans) | Inf. K: Rhizomucor miehei IHEM13391, pIC50 (Rhizomucor miehei) | Inf. B: Microsporum canis B68128, pIC50 (Microsporum canis) | Inf. F: Cryptococcus neoformans B66663, pIC50 (Cryptococcus neoformans) | Inf. C: Trichophyton rubrum B68183, pIC50 (Trichophyton rubrum) | Inf. D: Candida parapsilosis B66126, pIC50 (Candida parapsilosis) | Inf. E: Aspergillus fumigatus B42928, pIC50 (Aspergillus fumigatus)
Cc1cccc2c1-n1cccc1C(c1cc3ccccc3s1)NC2.Cl (racemic) [Compound 55] | 4.86 | 5.04 | 5.72 | <4.19 | 5.47 | <4.19 | 5.70 | 5.32 | 6.30 | <4.19 | 5.55
Cc1cccc2c1CN=C(c1ccc3ncsc3c1)c1cccn1-2 [Compound 183] | <4.49 | 4.77 | 5.99 | <4.49 | 4.96 | <4.49 | 5.85 | 4.49 | 6.68 | 5.31 | 5.26
Fc1cccc2cc(C3=NCc4c(Cl)cc(Cl)cc4-n4cccc43)oc12 [Compound 149] | <4.19 | <4.19 | 5.61 | <4.19 | 5.79 | <4.19 | 5.35 | 4.81 | 6.10 | <4.19 | 5.47
Cc1cccc2c1CN=C(c1cc3cc(Cl)ccc3o1)c1cccn1-2 [Compound 122] | <4.19 | 5.42 | 5.55 | <4.19 | 4.62 | <4.19 | 6.90 | 4.69 | 6.86 | <4.19 | 5.38
CCc1ccc(C2=NCc3c(Cl)cccc3-n3cccc32)cn1 [Compound 74] | 6.29 | 4.44 | 6.18 | <4.19 | 6.88 | <4.19 | 5.91 | <4.19 | 6.31 | 4.92 | 5.25
Clc1cccc2c1-n1cccc1C(c1cc3ccccc3s1)=NC2 [Compound 167] | 5.72 | 5.70 | 5.97 | <4.19 | 6.31 | 5.10 | 6.01 | 5.86 | 6.79 | 4.90 | 5.38
Cc1cccc2c1CN=C(c1cc3cccc(C)c3o1)c1cccn1-2 [Compound 131] | 5.355 | 5.51 | 6.31 | <4.34 | 5.99 | 4.59 | 6.50 | 6.11 | 7.10 | 4.81 | 6.11
FC(F)(F)c1ccc(C2=NCc3c(Cl)cc(Cl)cc3-n3cccc32)cn1 [Compound 91] | <4.19 | 5.10 | 5.72 | <4.19 | 5.28 | <4.19 | 5.69 | <4.19 | 6.27 | <4.19 | 5.75
FC(F)(F)c1ccc(C2=NCc3ccccc3-n3cccc32)cn1 [Compound 87] | <4.19 | <4.19 | 5.18 | <4.19 | 5.71 | <4.19 | 5.97 | <4.19 | 6.54 | <4.19 | 4.94
Clc1cccc2c1CN=C(c1ccc3ccsc3c1)c1cccn1-2 [Compound 172] | 5.15 | 5.59 | 6.81 | <4.19 | 5.45 | 4.72 | 6.90 | 5.85 | 7.35 | 5.80 | 6.29
Clc1cc(C2=NCc3c(Cl)cccc3-n3cccc32)cnc1Cl [Compound 79] | 6.12 | <4.19 | 5.76 | <4.19 | 6.28 | <4.19 | 5.72 | <4.19 | 6.33 | 4.69 | 6.63
Fc1ccc2oc(C3NCc4c(Cl)cccc4-n4cccc43)cc2c1 (racemic) [Compound 47] | 6.03 | <4.19 | 5.08 | <4.19 | 6.38 | 4.81 | 5.84 | <4.19 | 6.25 | <4.19 | 4.91
Clc1cccc2c1CN=C(c1ccc3ncsc3c1)c1cccn1-2 [Compound 184] | <4.19 | <4.19 | 6.51 | <4.19 | 6.15 | <4.19 | 6.70 | <4.19 | 7.32 | <4.19 | 6.27
Clc1cccc2c1-n1cccc1C(c1ccc3sccc3c1)=NC2 [Compound 174] | <4.19 | 6.06 | 6.80 | <4.19 | 4.80 | <4.19 | 6.54 | 6.43 | 6.87 | <4.19 | 6.30
